This is an account of results in patent US12509421B2, “Preparation and application of deuterated 4-phenyl-4-piperidinols” (priority 2022, dated 2025).

Counter-ions that a name gives are not always drawn. Some results are limits rather than exact numbers.

Series [1] relates to Female Kunming mice. In words: Hot plate analgesia test in mice. The format is in vivo. The conditions noted are these: intraperitoneal, 55° C. hot plate; for ED50: Mus musculus, ip. The protocol:
Female Kunming mice weighing about 20 g are placed on a hot plate instrument preheated to 55° C., and the latency of licking hind feet or lifting hind feet is used as the pain threshold index. Animals are screened before the experiment, and animals with latency less than 5 s or more than 30 s are excluded. To prevent foot burns, the longest observation time is set to 60s. The basic pain threshold is the average of two measurements, and the interval between the two measurements is 5 minutes. The pain threshold of mice in each group is determined at 15 minutes, 30 minutes, 60 minutes and 120 minutes after intraperitoneal administration. The effective percentage of analgesia (% MPE) is calculated according to the following formula
[formula] According to the effective percentage of analgesia, the ED50 value is calculated by graphpad prism 5.0 software.

The nature of series [2]: Metabolic stability in liver microsomes, dog. The conditions noted are these: for half-life at 2 μM / microsomal CLint at 2 μM: dog, microsomes, pH 7.4. How it is done: The solution B is slowly dropped into solution A, and the pH is adjusted to 7.40±0.05.
• Control drug: 4 μL Verapamil solution (10 mM) is added with 96 μL DMSO and diluted to 400 μM; • Compound to be tested: 4 μL compound to be tested (10 mM) is added with 96 μL normal saline and diluted to 400 μM.
The microsomes are stored in the refrigerator at −80° C., thawed at room temperature after being taken out, and mixed gently.
[…] PBS (100 mm, pH=7.4) solution is added to the negative sample. The solution is put into water bath at 37° C. and pre-incubated for 10 minutes; • B) After incubation, 2 μL reference drug or compound to be tested (400 μM) are added into each well to start the reaction.
For orientation: Liver microsomes are a subcellular fraction often used to study metabolism.

The target of series [3] is T1, μOR (Homo sapiens, UniProt P35372).
T1 construct: expressed in transfected cells; host or cells: CHO cells
T1 sequence (P35372 whole entry): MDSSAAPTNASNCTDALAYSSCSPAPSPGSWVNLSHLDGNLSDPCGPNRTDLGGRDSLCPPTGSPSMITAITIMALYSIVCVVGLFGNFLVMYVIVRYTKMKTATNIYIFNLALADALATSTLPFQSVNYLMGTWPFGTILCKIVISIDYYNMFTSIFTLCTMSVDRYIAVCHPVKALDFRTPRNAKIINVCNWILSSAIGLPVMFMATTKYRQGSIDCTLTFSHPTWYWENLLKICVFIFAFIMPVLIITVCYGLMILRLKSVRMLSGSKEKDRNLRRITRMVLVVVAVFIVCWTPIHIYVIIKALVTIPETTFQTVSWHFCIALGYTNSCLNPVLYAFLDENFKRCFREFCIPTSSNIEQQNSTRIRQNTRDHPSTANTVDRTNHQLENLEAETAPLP
In words: Opioid receptor competitive binding test, μOR. The conditions noted are these: compound at 10 μM; [3H]-labeled ligand; CHO cell membranes; ± SD of three measurements. The protocol:
CHO cells expressing p opioid receptor, δ opioid receptor and K opioid receptor are cultured in a 10 cm^2 Petri dish (F-12 medium+10% newborn bovine serum) for several days, and the culture solution is sucked after the cells grew to the bottom of the dish. 3 ml PBS/EDTA solution (0.1M NaCl, 0.01M NaH2PO4, 0.04% EDTA) is added for digestion for 3-5 minutes. The cells are blown with a straw to get fall off completely, collected in a 40 ml centrifuge tube, centrifuged at 5000 rpm for 5 minutes, and removed with the supernatant. The centrifuge tube is added with ice-cold homogenate (50 mM HEPES PH 7.4, 3 mM MgCl2, 1 mM EGTA). The solution and precipitate are transferred to homogenizer for homogenization; Then the homogenate is transferred into a centrifuge tube, centrifuged at 18000 rpm for 15 minutes, and centrifuged twice; the obtained precipitate is added with an appropriate amount of buffer solution of 50 mM Tris-HCl and pH 7.4, homogenized and sub-packaged in centrifuge tubes. The product is stored in a refrigerator at −70° C. for later use.
20-30 μg expressed membrane receptor protein and [3H]-labeled ligand (1-2 nM) are added to the total binding tube, added with 1 μM of corresponding ligand to the corresponding nonspecific binding tube. Various screened opioid ligand drugs (see the drug compounds in Table 1 below) are added to the sample tube with 100 μL final volume. The sample is incubated at 30° C. for 30 minutes, and the reaction is terminated in ice water. The glass fiber filter paper gF/C (whatman) is used for negative pressure filtration on Millipore sample collector. The sample is eluted with 4 ml 50 mm tris-HCl (pH 7.4) for three times, dried with the filter paper, put in 0.5 ml Eppendorf tube and added with 0.5 ml lipophilic scintillation liquid. The radioactive intensity is measured with PERKIN ELMER PRI-CARB 2910 liquid scintillation counter with calculation of the inhibition rate. The experiment is repeated for more than three times, with three compound tubes in each group. Inhibition rate(or binding rate)=(total binding rate dpm−sample tube dpm)/(total binding tube dpm-nonspecific binding tube dpm)×100%
IC50 is calculated with Prism 5.0 software. The Ki value is calculated according to the following formula: Ki=IC50/(1^+[L]/Kd), wherein [L] is the concentration of the added labeled ligand, and Kd is the equilibrium dissociation parameter of the labeled ligand.

The target in series [4] is CYP 2D6 (Homo sapiens, UniProt P10635). Description: Inhibition of cytochrome P450 enzyme in human liver microsomes, CYP 2D6.
Sequence of CYP 2D6 (P10635 whole entry): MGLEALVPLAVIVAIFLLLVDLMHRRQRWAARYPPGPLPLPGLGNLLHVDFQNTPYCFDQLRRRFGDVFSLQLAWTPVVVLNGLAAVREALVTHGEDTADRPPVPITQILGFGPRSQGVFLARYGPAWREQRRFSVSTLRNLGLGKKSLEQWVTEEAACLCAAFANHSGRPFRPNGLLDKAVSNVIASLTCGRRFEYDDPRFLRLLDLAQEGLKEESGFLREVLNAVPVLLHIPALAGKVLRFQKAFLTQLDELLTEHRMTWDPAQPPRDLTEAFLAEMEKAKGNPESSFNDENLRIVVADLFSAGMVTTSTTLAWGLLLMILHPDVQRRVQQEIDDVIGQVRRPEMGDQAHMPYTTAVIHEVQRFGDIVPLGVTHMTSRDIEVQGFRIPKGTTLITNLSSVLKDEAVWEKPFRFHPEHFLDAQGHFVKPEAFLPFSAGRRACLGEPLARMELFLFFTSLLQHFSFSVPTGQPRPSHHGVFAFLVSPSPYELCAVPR
For series [5], the target named is CYP 2C19 (Homo sapiens, UniProt P33261). In words: Inhibition of cytochrome P450 enzyme in human liver microsomes, CYP 2C19.
Sequence of CYP 2C19 (P33261 whole entry): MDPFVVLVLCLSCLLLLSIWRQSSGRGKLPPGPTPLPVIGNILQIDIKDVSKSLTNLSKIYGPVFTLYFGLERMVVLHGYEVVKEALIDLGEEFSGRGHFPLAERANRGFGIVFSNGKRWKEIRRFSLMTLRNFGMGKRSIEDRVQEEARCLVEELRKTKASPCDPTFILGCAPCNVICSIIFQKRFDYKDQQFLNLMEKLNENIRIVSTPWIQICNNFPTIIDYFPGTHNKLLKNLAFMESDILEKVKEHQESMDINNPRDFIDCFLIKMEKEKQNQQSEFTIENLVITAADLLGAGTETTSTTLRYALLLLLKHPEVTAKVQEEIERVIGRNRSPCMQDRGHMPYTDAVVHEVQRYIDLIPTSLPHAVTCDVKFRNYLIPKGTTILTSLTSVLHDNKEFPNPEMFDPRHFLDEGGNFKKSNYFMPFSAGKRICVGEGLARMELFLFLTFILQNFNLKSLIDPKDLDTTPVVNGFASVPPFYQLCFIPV
In series [6] the target is T2, CYP 1A2 (Homo sapiens, UniProt P05177).
T2 sequence (P05177 1-516): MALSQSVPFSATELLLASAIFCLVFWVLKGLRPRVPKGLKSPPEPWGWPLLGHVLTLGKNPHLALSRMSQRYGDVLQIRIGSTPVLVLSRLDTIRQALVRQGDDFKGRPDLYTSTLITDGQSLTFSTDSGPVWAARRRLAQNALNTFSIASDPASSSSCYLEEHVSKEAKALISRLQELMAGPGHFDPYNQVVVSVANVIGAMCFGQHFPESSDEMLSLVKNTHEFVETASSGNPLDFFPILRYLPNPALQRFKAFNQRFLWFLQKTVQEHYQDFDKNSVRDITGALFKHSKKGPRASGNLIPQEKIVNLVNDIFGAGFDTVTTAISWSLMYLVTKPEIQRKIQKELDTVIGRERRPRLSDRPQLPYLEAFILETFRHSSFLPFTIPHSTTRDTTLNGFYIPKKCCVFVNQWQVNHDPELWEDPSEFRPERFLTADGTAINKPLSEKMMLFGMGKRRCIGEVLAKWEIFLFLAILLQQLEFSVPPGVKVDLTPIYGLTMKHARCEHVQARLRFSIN
In words: Inhibition of cytochrome P450 enzyme in human liver microsomes, CYP 1A2.

The mark [7] stands for this setting: Dog liver microsomes 0.5 mg/mL, NADPH 1 mM, compound 2 μM.

The term ED50 denotes the dose at which the effect has come halfway, by size or by number of responders. In general, half-life refers to the time in which the quantity being followed falls by half. Low values mean fast loss, high ones slow loss. Broadly, the microsomal CLint is the capacity of the preparation to metabolise the compound, expressed as a volume cleared per time. Lower therefore signals greater metabolic stability. In general, IC50 refers to the concentration that gives 50% inhibition. Read a high IC50 as a need for much substance. `[2H]C([2H])([2H])Oc1cccc([C@]2(O)CCN(S(=O)(=O)Cc3ccccc3)C[C@H]2CN(C([2H])([2H])[2H])C([2H])([2H])[2H])c1` [II-5hydrochloride]: in series [1], the 50% effective dose (ED50) turned out to be 0.58 mg/kg. For the same compound, the half-life at 2 μM in series [2] amounted to 6.03 min. The compound further came in with a microsomal CLint at 2 μM in series [2] of 720 µL/min/mg. Besides, in series [3], the μOR binding rate is given as 27.1 ± 1.2%. The half-inhibitory concentration (IC50) in series [4] is 15.3 µM; in series [5], above 50 µM; in series [6] it was above 50 µM.

Compound `[2H]C([2H])([2H])N(C)C[C@@H]1CN(C(=O)Cc2cc(F)c(F)cc2F)CC[C@@]1(O)c1cccc(OC)c1` [II-7hydrochloride, 1-((3R,4S)-4-hydroxy-4-(3-methoxyphenyl)-3-(((methyl-d3)amino)methyl)-1-piperidinyl)-2(2,4,5-trifluorophenyl)ethyl-1-one] gave an ED50 in series [1] of 0.51 mg/kg. Besides, in series [2], the half-life at 2 μM was 5.25 min. In series [2], this compound yielded a microsomal CLint at 2 μM of 669 µL/min/mg. Besides, the μOR binding rate in series [3] was determined as 26.1 ± 2.3%. Also, the figures for the IC50 in series [4], in series [5] and in series [6] were 14.7 µM, above 50 µM and above 50 µM, respectively.

For `[2H]C([2H])([2H])N(C)C[C@@H]1CN(S(=O)(=O)Cc2ccccc2)CC[C@@]1(O)c1cccc(OC)c1` [II-1hydrochloride], the 50% effective dose (ED50) in series [1] turned out to be 0.52 mg/kg. Further, the half-life at 2 μM in series [2] stood at 5.01 min. In series [2], the microsomal CLint at 2 μM is 605 µL/min/mg. The compound also had a μOR binding rate in series [3] of 27.9 ± 1.3%. The values for the concentration for half-maximal inhibition (IC50) in series [4], in series [5] and in series [6] were 13 µM, above 50 µM and above 50 µM, respectively.

On to `[2H]C([2H])([2H])N(C[C@@H]1CN(S(=O)(=O)Cc2ccccc2)CC[C@@]1(O)c1cccc(OC)c1)C([2H])([2H])[2H]` [II-3hydrochloride], for which the ED50 in series [1] amounted to 0.5 mg/kg. This compound gave a half-life at 2 μM in series [2] of 5.26 min. The microsomal CLint at 2 μM in series [2] came to 663 µL/min/mg. In series [3], this compound showed a μOR binding rate of 28.2 ± 1.5%. The half-inhibitory concentration (IC50) in series [4] was 13.8 µM; in series [5], above 50 µM; in series [6], above 50 µM.

In series [1], `[2H]C([2H])([2H])N(C[C@@H]1CN(C(=O)Cc2cc(F)c(F)cc2F)CC[C@@]1(O)c1cccc(OC)c1)C([2H])([2H])[2H]` [II-9hydrochloride] displayed an ED50 of 0.52 mg/kg. In series [2], the half-life at 2 μM was found to be 5.19 min. Besides, the microsomal CLint at 2 μM in series [2] was determined as 659 µL/min/mg. The same compound returned a μOR binding rate in series [3] of 27.1 ± 1.1%. Further, the IC50 was 13.7 µM in series [4], above 50 µM in series [5] and above 50 µM in series [6].

Take `COc1cccc([C@]2(O)CCN(S(=O)(=O)Cc3ccccc3)C[C@H]2CN(C)C)c1.Cl` [Example 20 of CN201911076305.X, reference compound]: in series [1], the “ED50, hot plate” value was 0.49 mg/kg. In series [2] (setting [7]), this compound had a CLint of 839.02 μL/min/mg protein and a t1/2 of 1.65 min. In series [3], this compound registered a μOR binding rate of 27.52 ± 1.54%.

With `[2H]C([2H])([2H])Oc1cccc([C@]2(O)CCN(C(=O)Cc3cc(F)c(F)cc3F)C[C@H]2CN(C([2H])([2H])[2H])C([2H])([2H])[2H])c1` [II-11hydrochloride], the ED50 in series [1] stood at 0.64 mg/kg. Moreover, in series [2], the half-life at 2 μM was 5.99 min. Further, the microsomal CLint at 2 μM in series [2] came to 703 µL/min/mg. For the same compound, the μOR binding rate in series [3] stood at 24.3 ± 1.9%. Further, the IC50 in series [4] was 12.8 µM; in series [5] it was above 50 µM; in series [6], above 50 µM.
